Measurements published in publication PMC7580834, “Inhibition mechanism of naphthylphenylamine derivatives acting on the CDC25B dual phosphatase and analysis of the molecular processes involved in the high cytotoxicity exerted by one selected derivative in melanoma cells” (Journal of Enzyme Inhibition and Medicinal Chemistry, 2020).
Entries after “also recorded” stand apart in the source; their conditions may differ.

Assays:
[1] = target: T1, CDC25B (Homo sapiens, UniProt P30305); experiment: Intrinsic fluorescence quenching of recombinant CDC25B catalytic domain (Stern-Volmer); format: binding
T1 sequence (P30305 377-551 isoform P30305-2 limits assumed): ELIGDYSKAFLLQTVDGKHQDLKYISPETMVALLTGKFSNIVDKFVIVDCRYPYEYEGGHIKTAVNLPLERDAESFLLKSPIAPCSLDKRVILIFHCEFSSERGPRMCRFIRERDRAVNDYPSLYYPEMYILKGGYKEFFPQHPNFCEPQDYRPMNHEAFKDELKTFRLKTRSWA
Protocol: (§1) Fluorescence spectra were recorded at 20 °C using a computer-assisted Cary Eclipse spectrofluorimeter (Varian, Palo Alto, CA, USA) equipped with an electronic temperature controller. The excitation wavelength was set at 280 nm and the excitation and emission slits were set at 10 and 20 nm, respectively. A 500 µL final volume of a 0.2 µM solution of CDC25B or CDC25B-C473S dissolved in 20 mM Tris•HCl, pH 7.8, 0.5 mM TCEP was directly prepared in the fluorimetric cuvette in the absence or in the presence of OMFP and/or some NPA derivatives. Serial pre-dilutions of the NPA derivatives or OMFP at increasing concentration were prepared in DMSO or methanol, respectively. Alongside, a convenient amount of the enzyme pre-dilution was prepared just before its usage for the experiment and stored on ice. When the combined effect of NPA derivative and OMFP was investigated, two enzyme pre-dilutions were prepared in the absence or in the presence of 5 µM OMFP. In order to evaluate the specific effect produced by any addition of solvent/ligand on the intrinsic fluorescence of the enzyme, 495 µL of the enzyme pre-dilution were placed in the fluorimetric cuvette and the relative spectrum was recorded; after the addition of 5 µL of each pre-dilution of solvent/ligand and fast mixing, the spectrum was recorded again. This procedure, repeated for each experimental point, allowed a normalisation of the specific effects produced by solvent/ligands. Furthermore, a correction was also applied for the little inner-filter effect due to the absorbance at 280 nm of the NPA derivative used at different concentrations; on the other hand, no correction was necessary for OMFP. All spectra, recorded at a scan speed of 120 nm/min, were normalised and corrected.

[2] = target: T2, OMFP-bound CDC25B-C473S (Homo sapiens, UniProt P30305, C487S); experiment: Intrinsic fluorescence quenching of CDC25B-C473S in the presence of 5 µM OMFP (Stern-Volmer); format: binding; details: reciprocal of KSV; presence of 5 µM OMFP; read-out: K′D of the complex, OMFP-bound CDC25B-C473S•inhibitor
T2 sequence (P30305 370-580 C487S): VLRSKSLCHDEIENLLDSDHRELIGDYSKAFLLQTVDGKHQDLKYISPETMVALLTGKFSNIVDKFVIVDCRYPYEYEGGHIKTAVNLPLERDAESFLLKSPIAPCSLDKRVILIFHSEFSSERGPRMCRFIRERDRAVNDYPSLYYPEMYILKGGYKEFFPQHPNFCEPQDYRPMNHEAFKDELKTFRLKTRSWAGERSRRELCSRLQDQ
From the text: (§2) The mutant form of CDC25B, carrying the C473S replacement (CDC25B-C473S), was obtained through site-directed mutagenesis of the CDC25B catalytic segment cloned in pET28a-CDC25B-cd. To this aim, the QuikChange site-directed mutagenesis kit (Stratagene, La Jolla, CA, USA) and the forward and reverse primers for C473S replacement (5′d-[…]-3′ and 5′d-[…]-3′) were used. Positive clones were obtained, and the nucleotide sequencing of the mutagenised segment excluded the presence of undesired mutations. The new vector was called pET28a-CDC25B-C473S-cd. The expression of the new vector and the purification of the recombinant form of CDC25B-C473S catalytic domain were carried out as previously reported for wild-type CDC25B catalytic domain[18], and similar yields were obtained. As expected, the mutant enzyme was unable to hydrolyse the synthetic substrate OMFP, when its activity was checked with the fluorimetric assay method previously described.
as §1

[3] = test system: OMFP-bound CDC25B-C473S; experiment: as above; format: binding
From the text: as §2, §1

[4] = test system: caspase-9 in A2058 cells; experiment: Caspase-9 fluorimetric activity assay in cell lysates; format: cell-based, human; details: 10 µM, 24 h
Protocol: (§3) The caspase-3 and caspase-9 enzymatic activity was measured by using caspase-3 and -9 fluorimetric assay kits, respectively, according to the manufacturer’s protocol. Briefly, cells were seeded into 75 cm^2 plates (2 × 10^6 cells/plate) and after 24 h treated with 4a or 0.5% (v/v) DMSO for 24 h. At the end of incubation, cells were collected, washed with phosphate-buffered saline constituted by 10 mM Na2HPO4, 2 mM KH2PO4, pH 7.4, supplemented with 137 mM NaCl and 2.7 mM KCl (PBS), and finally lysed at 4 °C in the cell lysis buffer. Cell lysates were incubated with 50 µM DEVD-AFC or LEHD-AFC substrates at 37 °C for 2 h, to detect caspase-3 or caspase-9 activity, respectively, using a Cary Eclipse spectrofluorimeter. Excitation and emission wavelengths were set at 400 nm and 505 nm, respectively; both excitation and emission slits were set at 10 nm.

[5] = test system: caspase-9 in A375 cells; experiment: as above; format: cell-based, human; details: 10 µM, 24 h
Protocol: as §3

[6] = test system: A2058 and A375 melanoma cell lines; parameters: method as in PMID 31294975; details: 10 µM; cited from earlier work

For `CCOC(=O)c1cccc(Nc2cc(OC)cc3ccccc23)c1` [4a], the “KSV (Stern-Volmer constant)” value ([1]; 0.2 µM wild-type CDC25B, emission 357 nm, 20 °C, no OMFP) was 0.010 µM⁻¹, the Kd ([1]; reciprocal of KSV, inhibitor concentration leading to 50% quenching of CDC25B emission, read-out: K′D of the complex, Free CDC25B•inhibitor) was greater than 50 µM and the Kd [2] was 32 µM. The “KSV (Stern-Volmer constant)” value ([3]; 0.2 µM CDC25B-C473S, in the presence of 5 µM OMFP) was 0.031 µM⁻¹, the “K′D/Ki ratio” value ([3]; K′D of OMFP-bound CDC25B-C473S•inhibitor over Ki) was 3.8 and the “enzymatic activity of caspase-9” value [4] was “statistically significant increase”. For the same compound, the “enzymatic activity of caspase-9” value [5] was “statistically significant increase”, the “cell cycle of melanoma cells” value [6] was “arrest of cells in G2/M phase; also recorded: arrest in the G2/M phase; also recorded: arrested the cell cycle of melanoma cells in G2/M phase” and the “cell growth of melanoma cells” value [6] was “reduced the cell growth rate; also recorded: significantly reduced; also recorded: significant antiproliferative action”. The pCDK1 protein levels [6] was “increase”.
